The text below walks through data of publication PMC4858736, “Inhibition of cyclic diadenylate cyclase, DisA, by polyphenols” (Scientific Reports, 2016).

The experiment has as its target T1, DisA (Bacillus subtilis, UniProt P37573).
T1 sequence (P37573 1-360): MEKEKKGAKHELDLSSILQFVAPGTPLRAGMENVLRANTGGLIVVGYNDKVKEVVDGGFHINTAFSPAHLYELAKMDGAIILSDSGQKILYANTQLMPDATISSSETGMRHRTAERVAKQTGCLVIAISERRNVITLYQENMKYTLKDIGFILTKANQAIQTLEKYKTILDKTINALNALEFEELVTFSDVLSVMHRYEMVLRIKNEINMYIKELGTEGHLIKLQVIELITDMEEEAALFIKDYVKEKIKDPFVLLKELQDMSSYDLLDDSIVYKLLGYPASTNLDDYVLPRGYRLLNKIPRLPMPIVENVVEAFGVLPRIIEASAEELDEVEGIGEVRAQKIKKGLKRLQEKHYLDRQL
Put plainly: […]-ATP TLC diadenylate cyclase assay with purified DisA; HPLC and coralyne assays. The class given is biochemical.

Consider `O=C(O[C@@H]1Cc2c(O)cc(O)cc2O[C@@H]1c1cc(O)c(O)c2c(=O)c(O)cc([C@H]3Oc4cc(O)cc(O)c4C[C@H]3O)cc12)c1cc(O)c(O)c(O)c1` [TF2B, theaflavin-3′-gallate], for which 23.6 µM corresponded to half-maximal inhibition (IC50).
